# Source: patent publication US10793567B2, “Bicyclic inhibitors of histone deacetylase” (Rodin Therapeutics, Inc., priority 2017, dated 2020)
# Key:
# HDAC1 = HDAC1 (Homo sapiens (Human), UniProt Q13547); experiment: HDAC1 enzymatic assay (Caliper LabChip, peptide deacetylation); format: biochemical; conditions: 17 hours, 25° C.
# Description: The following describes an assay protocol for measuring the deacetylation of a peptide substrate by the enzymes HDAC2 or HDAC1. Enzyme, substrate, and cofactors are combined in a well of a microtiter plate and incubated for […] at 25° C. At the end of the incubation, the reaction is quenched by the addition of an SDS-containing buffer. Substrate and product are separated and quantified electrophoretically using the microfluidic-based LabChip 3000 Drug Discovery System from Caliper Life Sciences. The peptide substrate used in this assay is FAM-TSRHK(AC)KL-CONH2 (FAM is carboxyfluorescein). Peptide should be >98% purity by Capillary Electrophoresis. • 1. To a well of a 384-well plate, add 5 μL of 2× enzyme buffer. Using Labcyte Echo 550, add 100 nl compound. Enzyme and compound may be pre-incubated at this time if desired. • 2. Add 5 μL of 2× substrate buffer. • 3. Incubate plate at 25° C. for 17 hours. • 4. Terminate reaction by adding 40 μL of 1.55× stop buffer. • 5. Create job on a Caliper LabChip® 3000 Drug Discovery System. • 6. Load the plate and start electrophoresis using blue laser (480 nm) for excitation and green CCD (520 nm) for detection (CCD2). Reaction time=17 hours; Reaction temperature=25° C.
# 1% DMSO (from compound) 1 μM FAM-TSRHK(AC)KL-CONH2 5 nM HDAC Enzyme (specific activity may vary from lot-to-lot, and enzyme concentration may need to be adjusted to yield˜10-20% conversion of substrate to product).
# Substrate and product peptides present in each sample are separated electrophoretically using the LabChip 3000 capillary electrophoresis instrument. As substrate and product peptides are separated, two peaks of fluorescence are observed. Change in the relative fluorescence intensity of the substrate and product peaks is the parameter measured, reflecting enzyme activity. Capillary electrophoregramms (RDA acquisition files) are analyzed using HTS Well Analyzer software (Caliper Life Sciences). The […] in each sample is determined as the product to sum ratio (PSR): P/(S+P), where P is the peak height of the product peptide and S is the peak height of the substrate peptide. For each compound, enzyme activity is measured at various concentrations (12 concentrations of compound spaced by 3× dilution intervals). Negative control samples (0%-inhibition in the absence of inhibitor) and positive control samples (100%-inhibition, in the presence of 20 mM EDTA) are assembled in replicates of four and are used to calculate %-inhibition values for each compound at each concentration. Percent inhibition (Pinh) is determined using following equation: Pinh=(PSR0%−PSRinh)/(PSR0%−PSR100%)*100, where PSRinh is the product sum ratio in the presence of inhibitor, PSR0% is the average product sum ration in the absence of inhibitor and PSR100% is the average product sum ratio in 100%-inhibition control samples.
# The IC50 values of inhibitors are determined by fitting the inhibition curves (Pinh versus inhibitor concentration) by 4 parameter sigmoidal dose-response model using XLfit 4 software (IBDS).
# In the table, “A” indicates a […] of between 0.1 μM and 0.5 μM and “B” a Kd value of greater than 0.5 μM and less than or equal to 5.0 μM.
# [1] = tested on: human erythroid progenitors (CFU-E, BFU-E); experiment: Erythroid CFU assay (colony forming cell assay, bone marrow); format: cell-based; conditions: 14 days in culture
# Description: Compounds were tested to evaluate the potential effects on human erythroid and myeloid progenitors using colony forming cell assays. Clonogenic progenitors of human erythroid (CFU-E, BFU-E), granulocyte-monocyte (CFU-GM) and multipotential (CFU-GEMM) lineages were assessed in a semi-solid methylcellulose-based media formulation containing rhlL-3 (10 ng/mL), rhGM-SCF (10 ng/mL), rhSCF (50 ng/mL) and Epo (3 U/mL).
# Normal human bone marrow light density cells derived from normal bone marrow (NorCal Biologics, California), were stored in the gaseous phase of liquid nitrogen (−152° C.) until required for the assay. On the day of the experiment, the cells were thawed rapidly, the contents of each vial was diluted in 10 mL of Iscove's modified Dulbecco's medium containing 10% fetal bovine serum (IMDM+10% FBS) and washed by centrifugation (approximately 1200 r.p.m. for 10 minutes, room temperature). The supernatant was discarded and the cell pellets resuspended in a known volume of IMDM+10% FBS. A cell count (3% glacial acetic acid) and viability assessment (trypan blue exclusion test) was performed for the bone marrow sample.
# On the day of the experiment, the compounds were dissolved in DMSO to a stock concentration of 10 mM. Serial dilutions were prepared from the stock concentration to achieve concentrations of 2 and 0.4 mM. When added to the methylcellulose-based media at 1:1000 (v/v), the final test concentrations of 10, 2 and 0.4 μM were achieved. Additionally, 5-FU was evaluated at 1.0, 0.1 and 0.01 μg/mL.
# Clonogenic progenitors of the human erythroid (CFU-E and BFU-E) and myeloid (CFU-GM) lineages were set up in the methylcellulose-based media formulations described above. All compounds were added to the medium to give the final desired concentrations (10, 2 and 0.4 μM). 5-Fluorouracil (Sigma Aldrich) was used as a positive control for progenitor proliferation (inhibition of colony growth) and was introduced to the human bone marrow cultures at 1.0, 0.1, and 0.01 μg/mL. Solvent control cultures (containing no compound but 0.1% DMSO) as well as standard controls (containing no compound and no DMSO) were also initiated.
# Human myeloid and erythroid progenitor assays were initiated at 2.0×10^4 cells per culture. Following 14 days in culture, myeloid and erythroid colonies were assessed microscopically and scored by trained personnel. The colonies were divided into the following categories based on size and morphology: CFU-E, BFU-E, CFU-GM and CFU-GEMM.
# The mean±one standard deviation of three replicate cultures was calculated for progenitors of each category (CFU-E, BFU-E, etc.). Two-tailed t-tests were performed to assess if there was a difference in the number of colonies generated between solvent control and treated cultures. Due to the potential subjectivity of colony enumeration, a p value of less than 0.01 is deemed significant. To calculate the concentration of 50% inhibition of colony growth (IC50) for each compound, a dose response curve was generated plotting the log of the compound concentration versus the percentage of control colony growth using XLfit software (IDBS). The concentration of 50% inhibition of colony growth (IC50) was calculated based on the sigmoid curve fit using Dose-Response, One-Site Model formula: y=A+[(B−A)/(1+((C/x)^D))], where A=the initial value (baseline response), B=maximum response, C=center (drug concentration that provokes a response halfway between A and B) and D=slope of the curve at midpoint. Further, plots and additional dose response curves were generated using GraphPad Prism 7.0.
# Erythroid (CFU-E and BFU-E), myeloid (CFU-GM) and multi-potential (CFU-GEMM) colony enumeration was performed by trained personnel. The distribution of colony types as well as general colony and cellular morphology was analyzed. For statistical analysis colony numbers in compound treated cultures were compared to the solvent control cultures. […]
# Sequence of HDAC1 (Q13547 whole entry): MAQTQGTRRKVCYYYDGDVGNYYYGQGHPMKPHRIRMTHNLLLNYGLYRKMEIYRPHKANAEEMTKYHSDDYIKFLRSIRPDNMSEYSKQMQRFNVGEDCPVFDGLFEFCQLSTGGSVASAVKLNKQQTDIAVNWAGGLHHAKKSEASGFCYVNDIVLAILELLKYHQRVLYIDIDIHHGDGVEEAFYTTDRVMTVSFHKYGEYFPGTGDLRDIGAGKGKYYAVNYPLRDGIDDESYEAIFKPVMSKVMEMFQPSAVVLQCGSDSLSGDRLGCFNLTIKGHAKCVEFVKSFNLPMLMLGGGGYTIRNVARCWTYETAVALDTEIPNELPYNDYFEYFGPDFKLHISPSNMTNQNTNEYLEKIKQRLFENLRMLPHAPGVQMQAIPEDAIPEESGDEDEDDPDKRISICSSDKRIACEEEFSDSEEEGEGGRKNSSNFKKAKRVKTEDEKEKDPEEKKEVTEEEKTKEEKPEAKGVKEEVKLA
Structure (SMILES),IC50 (HDAC1) [nM],Erythroid % control @ 10 uM dose [1] [%]
Nc1ccc(-c2ccc(F)cc2)nc1NC(=O)N1Cc2cn(C3COC3)nc2C1 [Compound 1],500 to 5000,37
Cc1ncc2c(n1)CN(C(=O)Nc1nc(-c3ccc(F)s3)ccc1N)C2 [Compound 2],500 to 5000,40
CCc1ncc2c(n1)CN(C(=O)Nc1nc(-c3cccs3)ccc1N)C2 [Compound 3],500 to 5000,46.6
Cc1ncc(-c2ccc(N)c(NC(=O)N3Cc4cn(CC(F)F)nc4C3)n2)s1 [Compound 5],500 to 5000,
COCCn1cc2c(n1)CN(C(=O)Nc1nc(-c3ccc(F)cc3F)ccc1N)C2 [Compound 9],500 to 5000,40.4
CCc1ncc2c(n1)CN(C(=O)Nc1nc(-c3ccc(F)cc3)ccc1N)C2 [Compound 17],500 to 5000,59.6

# Other lines, results leading:
IC50 (HDAC1) [nM],Erythroid % control @ 10 uM dose [1] [%],Structure (SMILES)
500 to 5000,98,CCc1cc2c(cn1)CN(C(=O)Nc1nc(-c3cccnc3)ccc1N)C2 [Compound 8]
,93,Cc1cc2c(cn1)CN(C(=O)Nc1nc(-c3cccnc3)ccc1N)C2 [Compound 12]
500 to 5000,53,Cc1ncc2c(n1)CN(C(=O)Nc1nc(-c3ccc(F)cc3)ccc1N)C2 [Compound 14]
